Measured values published in US20230165766A1, “DISPERSANT OR DISPERSION MEDIA COMPOSITION COMPRISING 2,3-BUTANEDIOL, AND COSMETIC COMPOSITION COMPRISING SAME” (GS CALTEX CORPORATION, priority 2020, published 2023).

Legend:
[1] = Dispersibility of vitamin C in P/O emulsion under heating condition; type: physicochemical; settings: vitamin C-containing formulations
Method: Vitamin C is a water-soluble substance that dissolves well in water. […] Therefore, in this experiment, vitamin C was applied to a polyol in oil (P/O) formulation as an anhydrous formulation, and an ivory-colored cream was prepared to evaluate dispersibility. It is more important to produce a stable cosmetic without discoloration, odor change, or phase separation rather than the problem of precipitation regarding vitamin C. Thus, factors for evaluating the dispersing power were set as soft spreadability, application uniformity, and emulsion stability. 1 part by weight of […] JC 500B, 1.5 parts by weight of ABIL EM 90, and 2 parts by weight of KF 6017 were added to 100 parts by weight of ELASTOMER BASE to produce an oil-based mixed solution 1. […] Further. 15 parts by weight of ascorbic acid ultra-fine powder was used to prepare a water-based mixed solution 2. Further, 45 parts by weight of KSG-16 was used to prepare an oil-based mixed solution 2. The oil-based mixed solution 1 was heated to 80 to 90° C. while stirring the same. […] The dispersion stability was evaluated as follows: unstable: phase separation between the oil phase and the aqueous phase, discoloration and/or odor change, normal: the oil phase being slightly separated, and stable: no oil phase separation.

[2] = Ceramide dispersion force in solubilized essence formulation and O/W emulsion formulation; type: physicochemical
Method: Further, an experiment for evaluating the dispersion force of ceramide was performed by applying the same to each of the solubilized essence formulation and the O/W emulsion formulation.

[3] = Allantoin dispersion force evaluation (precipitation amount in water); type: physicochemical
Source text: Precipitation of allantoin occurs well when the temperature is low. When allantoin is precipitated during cosmetic production, it is problematic. In accordance with the present disclosure, using the property of allantoin whose precipitation occurs well, the dispersion force was identified in a short time by measuring an amount of precipitation of allantoin based on each of the polyols under a severe refrigeration condition when the temperature is low, and then the dispersion forces of the various polyols were compared with each other. The stability was evaluated at each of a room temperature, a refrigeration temperature, and thermostat (45° C.). […] In this experiment, the dispersion force of allantoin, that is, the precipitation amount, and a precipitation rate thereof, based on each of the polyols was evaluated. […] The amount of precipitation of allantoin was measured as follows. […] After the 24 hours or 7 days, a supernatant was removed therefrom, and the resulting mixture was dried in a thermostat to entirely remove any remaining supernatant, leaving only the precipitated portion. Then, the precipitated portion was dried for 12 hours, and then a weight thereof was measured. Thus, the amount of precipitation was derived as a difference value between the measured weight and the previously measured weight of the empty container.

[4] = Dispersion force of allantoin in solubilized formulation; type: physicochemical
Method: 0.02 parts by weight of EDTA-2Na, 2 parts by weight of 1,2-hexanediol, and 0.5 parts by weight of allantoin were added to 100 parts by weight of purified water to prepare a water-based mixed solution. On the other hand, 0.1 parts by weight of fragrance, 0.3 parts by weight of PEG-60 hydrogenated castor oil, 5 parts by weight of 95% ethanol and 10 parts by weight of the polyol of Present Example 2 were mixed with each other to prepare a solubilized mixed solution. That is, the water-based mixed solution is composed of ultrapure water, EDTA-2Na, 1,2-hexanediol and allantoin, while the solubilized mixed solution is composed of fragrance, PEG-60 hydrogenated castor oil, ethanol and polyol.
The water-based mixed solution was stirred at room temperature for 3 minutes. On the other hand, the solubilized mixed solution was stirred was heating the same to 45 to 50° C. to make the same transparent. Then, the solubilized mixed solution was slowly added to the water-based mixed solution to prepare a mixture which in turn was stirred at room temperature for 2 minutes.
The amount of precipitation of allantoin was measured as follows. […] Then, the precipitated portion was dried for 12 hours, and then a weight thereof was measured. Thus, the amount of precipitation was derived as a difference value between the measured weight and the previously measured weight of the empty container.

[5] = Ceramide dispersion force evaluation (ceramide in polyol); type: physicochemical
Method: (§1) Ceramide is an oil-soluble substance that is not soluble in water, precipitates easily during cosmetic production. It is difficult to stabilize ceramide due to gelling during the cosmetic production. In accordance with the present disclosure, the dispersion forces based on types of polyols were compared with each other using the characteristics of ceramide that precipitation thereof occurs well. The stability was evaluated at each of the room temperature, the refrigeration temperature, and the thermostat (45° C.).

[6] = Ceramide dispersion force in solubilized skin formulation; type: physicochemical
Method: as §1
0.02 parts by weight of EDTA-2Na and 2 parts by weight of 1,2-hexanediol were added to 100 parts by weight of purified water to prepare a water-based mixed solution 1. On the other hand, 0.1 parts by weight of fragrance, 0.3 parts by weight of PEG-60 hydrogenated castor oil, and 5 parts by weight of DPG (Dipropylene Glycol) were mixed with each other to produce a solubilized mixed solution. Further, a water-based mixed solution 2 was prepared by mixing 10 parts by weight of polyol of Present Example 6 and 1 part by weight of ceramide with each other.
The water-based mixed solution 1 was stirred at room temperature for 2 minutes. On the other hand, the solubilized mixed solution was heated to 45 to 50° C. while stirring the same to make the same transparent, and then was slowly added to the water-based mixed solution under a stirring operation. […]

[7] = cited from earlier work

C[C@H](O)[C@@H](C)O [(2R,3S)-2,3-butanediol]
difference between the properties under the heating/non-heating conditions [1]: no significant difference | dispersion force of ceramide [2]: the dispersion force was excellent | gelling phenomenon [2]: no gelling phenomenon was observed

C[C@H](O)[C@@H](C)O [Present Example 1, (2R,3S)-2,3butanediol]
dispersion force for allantoin [3]: excellent

C[C@H](O)[C@@H](C)O [Present Example 2, (2R,3S)-2,3butanediol]
allantoin dispersion force in the solubilized formulation [4]: excellent

C[C@H](O)[C@@H](C)O [Present Example 5, (2R,3S)-2,3butanediol]
ceramide dispersion force ([5]; 1 part ceramide in 100 parts polyol): ceramide was stably dispersed | state after 4 weeks in thermostat ([5]; thermostat (45° C.), 4 weeks): excellent dispersing power

C[C@H](O)[C@@H](C)O [Present Example 6, (2R,3S)-2,3butanediol]
ceramide dispersion force [6]: ceramide was stably dispersed

NC(=O)NC1NC(=O)NC1=O (stereo not drawn) [allantoin]
solubility of allantoin [7]: 0.5 g/100 mL
